Reference: US10941152B2, “Pyrazole compounds as modulators of FSHR and uses thereof” (TOCOPHERX, INC., priority 2014, dated 2021)
pEC50: −log10 of the molar value.

What was measured:
FSHR = biological target: T1, FSHR (Homo sapiens, UniProt P23945); assay: EC50 of cyclic AMP production in CHO FSHR cells + EC20 FSH (Assay A); format: cell-based; details: cyclic AMP production in CHO FSHR cells + EC20 FSH (0.265 pM), HTRF
T1 construct: expressed in transfected cells; host or cells: CHO (Cho-FSHR-LUC-1-1-43)
T1 sequence (P23945 18-695): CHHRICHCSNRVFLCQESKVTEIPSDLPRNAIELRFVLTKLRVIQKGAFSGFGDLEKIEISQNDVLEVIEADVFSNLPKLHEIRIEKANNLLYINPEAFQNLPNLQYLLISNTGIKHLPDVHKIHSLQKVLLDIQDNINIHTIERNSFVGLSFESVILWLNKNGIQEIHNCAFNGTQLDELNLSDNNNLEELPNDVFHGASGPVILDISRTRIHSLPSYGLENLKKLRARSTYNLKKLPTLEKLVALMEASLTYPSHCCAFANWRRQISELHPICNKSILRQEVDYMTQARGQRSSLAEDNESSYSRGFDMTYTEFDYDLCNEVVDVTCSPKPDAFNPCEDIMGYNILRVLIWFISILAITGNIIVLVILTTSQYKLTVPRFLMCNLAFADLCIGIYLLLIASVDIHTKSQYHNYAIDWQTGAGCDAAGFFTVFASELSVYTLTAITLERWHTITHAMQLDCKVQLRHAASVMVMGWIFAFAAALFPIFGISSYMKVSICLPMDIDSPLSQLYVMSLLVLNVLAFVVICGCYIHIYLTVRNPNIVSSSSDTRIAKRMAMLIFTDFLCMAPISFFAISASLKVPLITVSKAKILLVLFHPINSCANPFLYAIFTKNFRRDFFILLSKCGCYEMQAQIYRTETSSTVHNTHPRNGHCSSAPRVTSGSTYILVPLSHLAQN
Experimental: Example 24. EC50 of cyclic AMP production in CHO FSHR cells+EC20 FSH (Assay A)
2500 Cho-FSHR-LUC-1-1-43 cells were plated per well in 5 al of phenol red free DMEM/F12+1% FBS. Cells were plated in 384 well, solid white low volume plates (Greiner 784075) by Multidrop. Cells were assayed by adding 100 al of 2×EC20 FSH/IBMX in DMEM/F12+0.1% BSA) by Multidrop to 2 al of test compound stamped in 384 well plates (compounds are diluted 1:50). The final FSH concentration was 0.265 pM, and the final IBMX concentration was 200 μM. The compound plate map was as follows: Column 1: 2 μl of DMSO; Column 2: 2 μl of DMSO; Columns 3-12 and 13-24: 2 μl of test compound, diluted 1:4 in 100% DMSO, or 2 μl of FSH, diluted 1:4 in DMEM/F12+0.1% BSA. The starting concentration for FSH was 50 nM (final concentration was 0.5 nM). Furthermore, Column 23 contained 2 μl of EC100 FSH reference (100×) (diluted in DMEM/F12+0.1% BSA) at a final concentration of 0.5 nM, and Column 24 contained 2 μl of 1 mM AS707664/2 reference compound 2. 5 μl of compound+EC20 FSH mixture were transferred to cell plates (1:2 dilution into 5 μl of cell media) The plates were incubated at 37° C. for 1 h. 10 μl of mixed HTRF (CisBio #62AM4PEC) reagents were added per well and incubated at room temperature for 1 h. The plates were read on Envision using the cAMP HTRF—low volume 384 well protocol. The readout was the calculated fluorescence ratio (665 nm/620 nm). Values given in percent (%) indicate the percental effect (response) at a certain concentration of agonist relative to the maximum response of the FSH standard.

[1] = biological target: T2, follicle-stimulating hormone (FSH) receptor (Rattus norvegicus, UniProt P20395); assay: Rat granulosa EC50 FSH (Assay B); format: cell-based
T2 construct: endogenous in cells; host or cells: rat granulosa cells
T2 sequence (P20395 18-692): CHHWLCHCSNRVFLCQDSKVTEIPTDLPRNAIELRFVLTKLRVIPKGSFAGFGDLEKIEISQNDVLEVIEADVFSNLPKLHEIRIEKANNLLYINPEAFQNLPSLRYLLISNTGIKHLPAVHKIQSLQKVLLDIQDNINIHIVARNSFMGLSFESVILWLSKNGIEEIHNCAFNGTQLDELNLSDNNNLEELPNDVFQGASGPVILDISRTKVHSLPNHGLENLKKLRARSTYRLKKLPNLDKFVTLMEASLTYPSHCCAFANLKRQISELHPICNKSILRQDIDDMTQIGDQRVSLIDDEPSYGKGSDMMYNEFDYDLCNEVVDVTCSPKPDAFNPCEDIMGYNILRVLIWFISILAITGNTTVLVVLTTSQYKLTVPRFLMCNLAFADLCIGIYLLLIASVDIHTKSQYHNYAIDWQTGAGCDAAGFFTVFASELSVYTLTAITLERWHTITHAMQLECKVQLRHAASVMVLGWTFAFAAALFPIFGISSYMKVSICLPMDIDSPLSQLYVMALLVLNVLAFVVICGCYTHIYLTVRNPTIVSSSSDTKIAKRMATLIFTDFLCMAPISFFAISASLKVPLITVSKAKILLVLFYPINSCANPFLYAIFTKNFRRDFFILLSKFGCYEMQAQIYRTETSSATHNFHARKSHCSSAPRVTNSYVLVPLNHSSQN
Experimental: Example 25. Rat granulosa EC50 FSH (Assay B)
The assay was performed pursuant to the teaching of Yanofsky et al. (2006) Allosteric activation of the follicle-stimulating hormone (FSH) receptor by selective, nonpeptide agonists (JBC 281(19): 13226-13233, which is incorporated by reference in the disclosure of the invention).

Row | SMILES | pEC50 (FSHR) | pEC50 [1]
1 | COc1cc2c(cc1-c1cc(C#N)ccn1)-c1c(c(C(=O)N(C)C(C)(C)C)nn1-c1cc(Cl)cc(Cl)c1)CO2 [Compound 26, N-tert-butyl-8-(4-cyanopyridin-2-yl)-1-(3,5-dichlorophenyl)-7-methoxy-N-methyl-1,4-dihydrochromeno[4,3-c]pyrazole-3-carboxamide] | 7.00 to 8.00 | 6.30 to 7.00
2 | COc1cc2c(cc1-c1ccn(C)n1)-c1c(c(C(=O)N(C)C(C)(C)C)nn1-c1cc(F)cc(Cl)c1)CO2 [Compound 27, N-tert-butyl-1-(3-chloro-5-fluorophenyl)-7-methoxy-N-methyl-8-(1-methyl-1H-pyrazol-3-yl)-1,4-dihydrochromeno[4,3-c]pyrazole-3-carboxamide] | 7.00 to 8.00 | < 6.30
3 | COc1cc2c(cc1-c1ccn(C)n1)-c1c(c(C(=O)N3CCOCC3(C)C)nn1-c1cc(F)cc(Cl)c1)CO2 [Compound 29, (1-(3-chloro-5-fluorophenyl)-7-methoxy-8-(1-methyl-1H-pyrazol-3-yl)-1,4-dihydrochromeno[4,3-c]pyrazol-3-yl)(3,3-dimethylmorpholino)methanone] | 7.00 to 8.00 | 6.30 to 7.00
4 | COc1cc2c(cc1-c1ccn(C)n1)-c1c(c(C(=O)N(C)C(C)(C)C)nn1-c1cc(C)cc(Cl)c1)CO2 [Compound 30, N-tert-butyl-1-(3-chloro-5-methylphenyl)-7-methoxy-N-methyl-8-(1-methyl-1H-pyrazol-3-yl)-1,4-dihydrochromeno[4,3-c]pyrazole-3-carboxamide] | 6.30 to 7.00 | 6.30 to 7.00
5 | COc1cc2c(cc1-c1ccn(C)n1)-c1c(c(C(=O)N3CCOCC3(C)C)nn1-c1cc(C)cc(Cl)c1)CO2 [Compound 31, (1-(3-chloro-5-methylphenyl)-7-methoxy-8-(1-methyl-1H-pyrazol-3-yl)-1,4-dihydrochromeno[4,3-c]pyrazol-3-yl)(3,3-dimethylmorpholino)methanone] | 7.00 to 8.00 | 6.30 to 7.00
6 | COc1cc(Cl)cc(-n2nc(C(=O)N(C)C(C)(C)C)c3c2-c2cc(-c4ccn(C)n4)c(OC)cc2OC3)c1 [Compound 32, N-tert-butyl-1-(3-chloro-5-methoxyphenyl)-7-methoxy-N-methyl-8-(1-methyl-1H-pyrazol-3-yl)-1,4-dihydrochromeno[4,3-c]pyrazole-3-carboxamide] | 7.00 to 8.00 | 6.30 to 7.00
7 | COc1cc(Cl)cc(-n2nc(C(=O)N3CCOCC3(C)C)c3c2-c2cc(-c4cncc(C#N)c4)c(OC)cc2OC3)c1 [Compound 34, 5-(1-(3-chloro-5-methoxyphenyl)-3-(3,3-dimethylmorpholine-4-carbonyl)-7-methoxy-1,4-dihydrochromeno[4,3-c]pyrazol-8-yl)nicotinonitrile] | > 8.00 | 7.00 to 8.00

The remaining lines, values ahead:

Row | pEC50 (FSHR) | pEC50 [1] | SMILES
8 | > 8.00 | 6.30 to 7.00 | COc1cc2c(cc1-c1cccc(C#N)c1F)-c1c(c(C(=O)N(C)C(C)(C)C)nn1-c1cc(Cl)cc(Cl)c1)CO2 [Compound 19, N-tert-butyl-8-(3-cyano-2-fluorophenyl)-1-(3,5-dichlorophenyl)-7-methoxy-N-methyl-1,4-dihydrochromeno[4,3-c]pyrazole-3-carboxamide]
9 | > 8.00 | 6.30 to 7.00 | COc1cc2c(cc1-c1cncc(N)c1)-c1c(c(C(=O)N(C)C(C)(C)C)nn1-c1cc(Cl)cc(Cl)c1)CO2 [Compound 20, 8-(5-aminopyridin-3-yl)-N-tert-butyl-1-(3,5-dichlorophenyl)-7-methoxy-N-methyl-1,4-dihydrochromeno[4,3-c]pyrazole-3-carboxamide]
10 | > 8.00 | 7.00 to 8.00 | COc1cc2c(cc1-c1ccnc(C#N)c1)-c1c(c(C(=O)N(C)C(C)(C)C)nn1-c1cc(Cl)cc(Cl)c1)CO2 [Compound 21, N-tert-butyl-8-(2-cyanopyridin-4-yl)-1-(3,5-dichlorophenyl)-7-methoxy-N-methyl-1,4-dihydrochromeno[4,3-c]pyrazole-3-carboxamide]
11 | > 8.00 | 7.00 to 8.00 | COc1cc2c(cc1-c1cccc(O)c1)-c1c(c(C(=O)N(C)C(C)(C)C)nn1-c1cc(Cl)cc(Cl)c1)CO2 [Compound 22, N-tert-butyl-1-(3,5-dichlorophenyl)-8-(3-hydroxyphenyl)-7-methoxy-N-methyl-1,4-dihydrochromeno[4,3-c]pyrazole-3-carboxamide]
12 | > 8.00 | 7.00 to 8.00 | COc1cc2c(cc1-c1cncc(CO)c1)-c1c(c(C(=O)N(C)C(C)(C)C)nn1-c1cc(Cl)cc(Cl)c1)CO2 [Compound 23, N-tert-butyl-1-(3,5-dichlorophenyl)-8-(5-(hydroxymethyl)pyridin-3-yl)-7-methoxy-N-methyl-1,4-dihydrochromeno[4,3-c]pyrazole-3-carboxamide]
13 | > 8.00 | 7.00 to 8.00 | COc1cc2c(cc1-c1cncc(CO)c1)-c1c(c(C(=O)N3CCOCC3(C)C)nn1-c1cc(Cl)cc(Cl)c1)CO2 [Compound 24, (1-(3,5-dichlorophenyl)-8-(5-(hydroxymethyl)pyridin-3-yl)-7-methoxy-1,4-dihydrochromeno[4,3-c]pyrazol-3-yl)(3,3-dimethylmorpholino)methanone]
14 | > 8.00 | 7.00 to 8.00 | COc1cc2c(cc1-c1cccc(F)c1C#N)-c1c(c(C(=O)N(C)C(C)(C)C)nn1-c1cc(Cl)cc(Cl)c1)CO2 [Compound 25, N-tert-butyl-8-(2-cyano-3-fluorophenyl)-1-(3,5-dichlorophenyl)-7-methoxy-N-methyl-1,4-dihydrochromeno[4,3-c]pyrazole-3-carboxamide]
15 | > 8.00 | 6.30 to 7.00 | COc1cc2c(cc1-c1cncc(C#N)c1)-c1c(c(C(=O)N3CCOCC3(C)C)nn1-c1cc(F)cc(Cl)c1)CO2 [Compound 28, 5-(1-(3-chloro-5-fluorophenyl)-3-(3,3-dimethylmorpholine-4-carbonyl)-7-methoxy-1,4-dihydrochromeno[4,3-c]pyrazol-8-yl)nicotinonitrile]
16 | > 8.00 | 7.00 to 8.00 | COc1cc(Cl)cc(-n2nc(C(=O)N3CCOCC3(C)C)c3c2-c2cc(-c4ccn(C)n4)c(OC)cc2OC3)c1 [Compound 33, (1-(3-chloro-5-methoxyphenyl)-7-methoxy-8-(1-methyl-1H-pyrazol-3-yl)-1,4-dihydrochromeno[4,3-c]pyrazol-3-yl)(3,3-dimethylmorpholino)methanone]
